{"source": "patent US6919088B2", "about": "(priority 2002, dated 2005)", "origin": "cited, not measured here", "key": {"[1]": {"system": "decorin and procollagen-I", "settings": "in vitro testing compared to retinoic acid"}, "[2]": {"system": "arachadonic acid in tissue lipids", "settings": "rats, dietary triacylglycerols"}}, "data": [{"smiles": "CCCCCCCCCCC/C=C\\CCCCC(=O)O", "note": "[petroselinic acid, cis-6-octadecenoic acid]", "values": [{"measurement": "upregulating and increasing synthesis of decorin and procollagen-I", "setting": "[1]", "value": "more effective than retinoic acid"}, {"measurement": "levels of arachadonic acid in tissue lipids", "setting": "[2]", "value": "reduce the levels of arachadonic acid"}]}]}
